≈ marks a conversion by molar mass, not a printed value. Starred links: 1 amine or outer side, 2 acyl side, 3 side chain; linkers in the order of their positions; H or OH if unused. Non-standard residues stand in square brackets, D forms with d. Residues, ends and D or L forms follow the SMILES beside them. ξ: configuration not given here. Pro(3ξ,4ξ-(CH2)4) = O=C(O)[C@H]1NCC2CCCCC21; X1 = O=C([C@@H]1CN([*:1])C2CCCCC21)[*:2]; Phe(4-F) = N[C@@H](Cc1ccc(F)cc1)C(=O)O; Tic = O=C(O)[C@@H]1Cc2ccccc2CN1; Orn = NCCC[C@H](N)C(=O)O; Dap = NC[C@H](N)C(=O)O; βAla = NCCC(=O)O
Experiments:
Assay type in all cases: functional
[1] = system: Acinetobacter baumannii; assay: Antimicrobial activity against Acinetobacter baumannii ATCC 19606 after 24 hrs; settings: ATCC 19606 = CIP 70.34 = JCM 6841, 24 h
[2] = system: Staphylococcus aureus; assay: Antimicrobial activity against methicillin-resistant Staphylococcus aureus ATCC 33591 after 24 hrs; settings: ATCC 33591, 24 h
[3] = system: Brucella suis; assay: Antimicrobial activity against Brucella suis ATCC 23445 after 24 hrs; settings: ATCC 23445, 24 h
[4] = system: Acinetobacter baumannii; assay: Antimicrobial activity against Acinetobacter baumannii WRAIR after 24 hrs
[5] = system: Francisella tularensis; assay: Antimicrobial activity against Francisella tularensis SCHU-S4 after 24 hrs; settings: SCHU-S4, 24 h
[6] = system: Brucella abortus; assay: Antimicrobial activity against Brucella abortus 2308 after 24 hrs; settings: Brucella abortus, 2308, 24 h
[7] = system: Bacillus anthracis; assay: Antimicrobial activity against Bacillus anthracis Ames after 24 hrs
[8] = system: Burkholderia pseudomallei; assay: Antimicrobial activity against Burkholderia pseudomallei BURK003(1026b) after 24 hrs
[9] = system: Yersinia pestis; assay: Antimicrobial activity against Yersinia pestis CO92 after 24 hrs; settings: CO92, 24 h
[10] = system: Brucella melitensis; assay: Antimicrobial activity against Brucella melitensis 16 M after 24 hrs
[11] = system: Burkholderia mallei; assay: Antimicrobial activity against Burkholderia mallei ATCC 23444 after 24 hrs; settings: ATCC 23444, 24 h

Row | SMILES | MIC [1] | MIC [2] | MIC [3] | MIC [4] | MIC [5] | MIC [6] | MIC [7] | MIC [8] | MIC [9] | MIC [10] | MIC [11]
1 | CC(=O)NCCC(=O)N[C@@H](Cc1ccccc1)C(=O)N1Cc2ccccc2C[C@H]1C(=O)N1C[C@@H](C(=O)NCCC(=O)N[C@@H](CCCCN)C(=O)N2Cc3ccccc3C[C@H]2C(=O)N2C[C@@H](C(=O)NCCC(=O)N[C@@H](Cc3ccccc3)C(=O)N3Cc4ccccc4C[C@H]3C(=O)N3C[C@@H](C(=O)NCCC(=O)N[C@@H](CCCCN)C(=O)N[C@@H](CCCCN)C(=O)N[C@@H](CCCCN)C(=O)N[C@@H](CCCCN)C(=O)N[C@@H](CCCCN)C(N)=O)C4CCCCC43)C3CCCCC32)C2CCCCC21 (stereo partly drawn) (Ac-[βAla]F[Tic][X1][βAla]K[Tic][X1][βAla]F[Tic][X1][βAla]KKKKK-NH2) | 1.5 µM (≈ 3.51 µg/mL) | 200 µM (≈ 468 µg/mL) | 200 µM (≈ 468 µg/mL) | 6.2 µM (≈ 14.5 µg/mL) | 100 µM (≈ 234 µg/mL) | 200 µM (≈ 468 µg/mL) | 25 µM (≈ 58.4 µg/mL) | 200 µM (≈ 468 µg/mL) | 200 µM (≈ 468 µg/mL) | 200 µM (≈ 468 µg/mL) | 200 µM (≈ 468 µg/mL)
2 | CC(=O)NCCC(=O)N[C@@H](Cc1ccc(F)cc1)C(=O)N1Cc2ccccc2C[C@H]1C(=O)N1CC2CCCCC2[C@H]1C(=O)NCCC(=O)N[C@@H](CN)C(=O)N1Cc2ccccc2C[C@H]1C(=O)N1CC2CCCCC2[C@H]1C(=O)NCCC(=O)N[C@@H](Cc1ccc(F)cc1)C(=O)N1Cc2ccccc2C[C@H]1C(=O)N1CC2CCCCC2[C@H]1C(=O)NCCC(=O)N[C@@H](CN)C(=O)N1Cc2ccccc2C[C@H]1C(=O)N[C@@H](CN)C(=O)N[C@@H](CN)C(=O)N[C@@H](CN)C(=O)N[C@@H](CN)C(N)=O (stereo partly drawn) (Ac-[βAla][Phe(4-F)][Tic][Pro(3ξ,4ξ-(CH2)4)][βAla][Dap][Tic][Pro(3ξ,4ξ-(CH2)4)][βAla][Phe(4-F)][Tic][Pro(3ξ,4ξ-(CH2)4)][βAla][Dap][Tic][Dap][Dap][Dap][Dap]-NH2) | 3.4 µM (≈ 7.75 µg/mL) | 109 µM (≈ 249 µg/mL) | 219 µM (≈ 499 µg/mL) | 3.4 µM (≈ 7.75 µg/mL) | 219 µM (≈ 499 µg/mL) | 219 µM (≈ 499 µg/mL) | 6.8 µM (≈ 15.5 µg/mL) | 219 µM (≈ 499 µg/mL) | 219 µM (≈ 499 µg/mL) | 219 µM (≈ 499 µg/mL) | 219 µM (≈ 499 µg/mL)
3 | CC(C)C[C@H](NC(=O)[C@@H](N)CCCCN)C(=O)N1Cc2ccccc2C[C@H]1C(=O)N1C[C@@H](C(=O)NCC(=O)N[C@@H](CCCCN)C(=O)N2Cc3ccccc3C[C@H]2C(=O)N2C[C@@H](C(=O)N[C@@H](Cc3ccccc3)C(=O)N3Cc4ccccc4C[C@H]3C(=O)N3C[C@@H](C(=O)NCC(=O)N[C@@H](CCCCN)C(=O)N4Cc5ccccc5C[C@H]4C(=O)N4C[C@@H](C(=O)N[C@@H](Cc5ccccc5)C(=O)N5Cc6ccccc6C[C@H]5C(=O)N5C[C@@H](C(=O)NCC(=O)N[C@@H](CCCCN)C(=O)N6Cc7ccccc7C[C@H]6C(=O)N6C[C@@H](C(=O)N[C@@H](CCCCN)C(=O)N[C@@H](CCCCN)C(=O)N[C@@H](CCCCN)C(=O)N[C@@H](CCCCN)C(N)=O)C7CCCCC76)C6CCCCC65)C5CCCCC54)C4CCCCC43)C3CCCCC32)C2CCCCC21 (stereo partly drawn) (H-KL[Tic][X1]GK[Tic][X1]F[Tic][X1]GK[Tic][X1]F[Tic][X1]GK[Tic][X1]KKKK-NH2) | 4.6 µM (≈ 16 µg/mL) | 17.9 µM (≈ 62.4 µg/mL) | 144 µM (≈ 502 µg/mL) | 144 µM (≈ 502 µg/mL) | 144 µM (≈ 502 µg/mL) | 144 µM (≈ 502 µg/mL) | 8.97 µM (≈ 31.2 µg/mL) | 144 µM (≈ 502 µg/mL) | 144 µM (≈ 502 µg/mL) | 144 µM (≈ 502 µg/mL) | 144 µM (≈ 502 µg/mL)
4 | CC(C)C[C@H](NC(=O)[C@@H](N)CCCCN)C(=O)N1Cc2ccccc2C[C@H]1C(=O)N1C[C@@H](C(=O)N[C@@H](CCCCN)C(=O)N2Cc3ccccc3C[C@H]2C(=O)N2C[C@@H](C(=O)N[C@@H](Cc3ccccc3)C(=O)N3Cc4ccccc4C[C@H]3C(=O)N3C[C@@H](C(=O)N[C@@H](CCCCN)C(=O)N4Cc5ccccc5C[C@H]4C(=O)N4C[C@@H](C(=O)N[C@@H](Cc5ccccc5)C(=O)N5Cc6ccccc6C[C@H]5C(=O)N5C[C@@H](C(=O)N[C@@H](CCCCN)C(=O)N6Cc7ccccc7C[C@H]6C(=O)N6C[C@@H](C(=O)N[C@@H](CCCCN)C(=O)N[C@@H](CCCCN)C(=O)N[C@@H](CCCCN)C(=O)N[C@@H](CCCCN)C(N)=O)C7CCCCC76)C6CCCCC65)C5CCCCC54)C4CCCCC43)C3CCCCC32)C2CCCCC21 (stereo partly drawn) (H-KL[Tic][X1]K[Tic][X1]F[Tic][X1]K[Tic][X1]F[Tic][X1]K[Tic][X1]KKKK-NH2) | 9.3 µM (≈ 30.8 µg/mL) | 150 µM (≈ 497 µg/mL) | 150 µM (≈ 497 µg/mL) | 150 µM (≈ 497 µg/mL) | 150 µM (≈ 497 µg/mL) | 150 µM (≈ 497 µg/mL) | 150 µM (≈ 497 µg/mL) | 150 µM (≈ 497 µg/mL) | 150 µM (≈ 497 µg/mL) | 150 µM (≈ 497 µg/mL) | 150 µM (≈ 497 µg/mL)
5 | CC(C)C[C@H](NC(=O)[C@@H](N)CCCCN)C(=O)N1Cc2ccccc2C[C@H]1C(=O)N1C[C@@H](C(=O)N[C@@H](CCCCN)C(=O)N2Cc3ccccc3C[C@H]2C(=O)N2C[C@@H](C(=O)N[C@@H](Cc3ccccc3)C(=O)N3Cc4ccccc4C[C@H]3C(=O)N3C[C@@H](C(=O)N[C@@H](CCCCN)C(=O)N4Cc5ccccc5C[C@H]4C(=O)N4C[C@@H](C(=O)N[C@@H](Cc5ccccc5)C(=O)N5Cc6ccccc6C[C@H]5C(=O)N5C[C@@H](C(=O)N[C@@H](CCCCN)C(=O)N6Cc7ccccc7C[C@H]6C(=O)N6C[C@@H](C(=O)N[C@@H](CCCCN)C(=O)N[C@@H](CCCNC(=N)N)C(N)=O)C7CCCCC76)C6CCCCC65)C5CCCCC54)C4CCCCC43)C3CCCCC32)C2CCCCC21 (stereo partly drawn) (H-KL[Tic][X1]K[Tic][X1]F[Tic][X1]K[Tic][X1]F[Tic][X1]K[Tic][X1]KR-NH2) | 40.5 µM (≈ 125 µg/mL) | 162 µM (≈ 500 µg/mL) | 162 µM (≈ 500 µg/mL) | 162 µM (≈ 500 µg/mL) | 81 µM (≈ 250 µg/mL) | 500 µM (≈ 1540 µg/mL) | 40.5 µM (≈ 125 µg/mL) | 162 µM (≈ 500 µg/mL) | 162 µM (≈ 500 µg/mL) | 162 µM (≈ 500 µg/mL) | 162 µM (≈ 500 µg/mL)
6 | CC(C)C[C@H](NC(=O)[C@@H](N)CCCN)C(=O)N1Cc2ccccc2C[C@H]1C(=O)N1C[C@@H](C(=O)N[C@@H](CCCN)C(=O)N2Cc3ccccc3C[C@H]2C(=O)N2C[C@@H](C(=O)N[C@@H](Cc3ccccc3)C(=O)N3Cc4ccccc4C[C@H]3C(=O)N3C[C@@H](C(=O)N[C@@H](CCCN)C(=O)N4Cc5ccccc5C[C@H]4C(=O)N4C[C@@H](C(=O)N[C@@H](Cc5ccccc5)C(=O)N5Cc6ccccc6C[C@H]5C(=O)N5C[C@@H](C(=O)N[C@@H](CCCN)C(=O)N6Cc7ccccc7C[C@H]6C(=O)N6C[C@@H](C(=O)N[C@@H](CCCN)C(=O)N[C@@H](CCCN)C(=O)N[C@@H](CCCN)C(=O)N[C@@H](CCCN)C(N)=O)C7CCCCC76)C6CCCCC65)C5CCCCC54)C4CCCCC43)C3CCCCC32)C2CCCCC21 (stereo partly drawn) (H-[Orn]L[Tic][X1][Orn][Tic][X1]F[Tic][X1][Orn][Tic][X1]F[Tic][X1][Orn][Tic][X1][Orn][Orn][Orn][Orn]-NH2) | 9.77 µM (≈ 31.3 µg/mL) | 156 µM (≈ 499 µg/mL) | 156 µM (≈ 499 µg/mL) | 156 µM (≈ 499 µg/mL) | 156 µM (≈ 499 µg/mL) | 156 µM (≈ 499 µg/mL) | 156 µM (≈ 499 µg/mL) | 156 µM (≈ 499 µg/mL) | 156 µM (≈ 499 µg/mL) | 156 µM (≈ 499 µg/mL) | 156 µM (≈ 499 µg/mL)
7 | CC1(C)S[C@@H]2[C@H](NC(=O)[C@H](N)c3ccccc3)C(=O)N2[C@H]1C(=O)O [AMPICILLIN] | 179 µM (≈ 62.5 µg/mL) | 93 µM (≈ 32.5 µg/mL) | 0.8 µM (≈ 0.28 µg/mL) | 1430 µM (≈ 500 µg/mL) | 0.09 µM (≈ 0.0314 µg/mL) | 11 µM (≈ 3.84 µg/mL) | 0.4 µM (≈ 0.14 µg/mL) | 0.09 µM (≈ 0.0314 µg/mL) | 0.8 µM (≈ 0.28 µg/mL) | 11 µM (≈ 3.84 µg/mL) | 0.09 µM (≈ 0.0314 µg/mL)
8 | C[C@H]1c2cccc(O)c2C(=O)C2=C(O)[C@]3(O)C(=O)C(C(N)=O)=C(O)[C@@H](N(C)C)[C@@H]3[C@@H](O)[C@@H]21 [DOXYCYCLINE] | 0.56 µM (≈ 0.249 µg/mL) | 17.6 µM (≈ 7.82 µg/mL) | 0.56 µM (≈ 0.249 µg/mL) | 0.56 µM (≈ 0.249 µg/mL) | 0.09 µM (≈ 0.04 µg/mL) | 0.56 µM (≈ 0.249 µg/mL) | 0.27 µM (≈ 0.12 µg/mL) | 0.09 µM (≈ 0.04 µg/mL) | 0.56 µM (≈ 0.249 µg/mL) | 0.56 µM (≈ 0.249 µg/mL) | 0.09 µM (≈ 0.04 µg/mL)

— ChEMBL document CHEMBL1255229, “Novel antimicrobial peptides that exhibit activity against select agents and other drug resistant bacteria” (2010)
